Data set [1] is described as follows: Cytotoxicity on Sup-T1 cells (MTT). The settings on record: human, read-out: Percent Viability; for viability at 0.001 µM: concentration 1 nM; for viability at 0.1 µM: concentration 100 nM; for viability at 1 µM: concentration 1 μM; for viability at 100 µM: concentration 100 μM; for viability at 1 mM: concentration 1 mM. It is filed as cell-based. The method, then: Reduction of 3-(4,5-dimethylthiozol-2-yl)-2,5-diphenyltetrazolium bromide (MTT, sigma) is chosen as an optimal end point of cell viability measurement (Mosmann, 1983; Cole, 1986; Alley et al., 1988) […] (0.2×10^6 cells per well) are seeded in 96-well plates. Increasing concentrations of compound are added to the cells and incubated at 37° C. for about 14 hours in a CO2 Incubator with 5% CO2. The media is replaced with a fresh growth medium along with 20 μL of 5 mg/ml 3-(4,5-dimethylthiazol-2-yl)-2,5-diphenyltetrazolium bromide (MTT, Sigma). After incubation for about 4 hours in a humidified atmosphere, the media is removed and 200 μL of 0.1 N acidic isopropyl alcohol is added to the wells to dissolve the MTT-formazan crystals. The absorbance is recorded at 570 nm, immediately after the development of purple colour. Each experiment is conducted in triplicate and the data are represented as average, with standard deviation. Percent viability of the cells is computed with reference to the absorbance of reduced MTT in the experiments conducted in absence of any compound.

Data set [2] in a line: Cytotoxicity on Molt-4 cells (MTT). The settings on record: human, read-out: Percent Viability; for viability at 24 h, 0.1 µM: concentration 0.1 μM; for viability at 24 h, 1 µM: concentration 1 μM; for viability at 24 h, 10 µM: concentration 10 μM; for viability at 24 h, 100 µM: concentration 100 μM. It is filed as cell-based. The method, then: 10 mM stock solution of the test compound was made in DMSO and stored at −20° C. for further use. During the day of the experiment working stocks were made by serial dilution with DMSO. The final concentration of DMSO in the test media is 1%.
MTT assay was performed in a 96 well format using Molt-4 cell line (Human acute T lymphoblastic leukemia)—a suspension culture maintained in RPMI with 10% FBS media.
Approximately 0.03 million cells are seeded/well and the plate was incubated for 16 hours. Following incubation, cells are treated with a test compound at a defined concentration in triplicates and incubation was continued for another 24 hours. At the end of the incubation, MTT reagent was added (10 μl, 5 mg/ml stock) to the plate and continued incubation for additional 4 hours. Reaction was terminated by addition of 200 μl 0.1N acidic propanol. The colour developed was measured by a plate reader using 590 nm filters. The percent viability was calculated by comparing mean absorbance value of sample with the control (Vehicle alone).

The next data set concerns HIV-193IN 101. Description: P24 assay for anti-HIV activity in Sup-T1 cells. To be noted: Human immunodeficiency virus 1, SUP-T1, read-out: Percent Inhibition of HIV-193IN 101 Replication in Sup-T1 Cells (table title: Percent Viability). It is filed as cell-based, HIV-1. The method, then:
Viral p24 is measured after about 72 hours of post infection in presence of drugs using an ABL p24 ELISA kit. 0.5 million cells/well are taken into the 24 well plates and added increasing concentrations of drugs. 1 ng/ml of HIV-1 virus was added to each well and incubated for overnight at 37° C. (37° C. and 5% CO2). After about 16 hours incubation the media was changed and fresh media was added and cultured for about 72 hours. P24 was quantified at the 4th day of post-infection using an ABL kit according to manufacturer's instructions.
Percent Inhibition of HIV-193IN 101 Replication in Sup-T1 Cells

The subject of a further data set is HIV-1 strain NL4-3. Briefly: Anti-HIV-1 luciferase indicator assay in MT2 cells, NL4-3. The settings on record: viral strain NL4-3; for IC50: Human immunodeficiency virus 1, NL43, MT2, MT2 cells, read-out: IC50; for TI / Safety Index (CC50/IC50): MT2 cells. It is filed as cell-based. The method, then: (§1) Compound was dissolved in DMSO to make 30 mM stock. Then the 30 mM stock is further diluted to 4 mM using DMSO. The 4 mM stock was used as the top concentration to carry out an 11-point, 3-fold dilution scheme using DMSO in a 96-well plate to make the compound dose plate. Compounds in the dose plate were transferred to a new 96-well plate (working plate) containing PBS with 0.05% pluronic acid. From this working plate, the compound solution was transferred to the 384-well assay plates.
(§2) Control compounds used in compound control wells were prepared and added to assay plates individually.
(§3) MT2 cells were mixed with HIV-1 strain NL4-3 (or IIIB, or CNHN24) and the cell/virus mixture was added to the aforementioned antivirus assay plates. After incubation in a 37° C., 5% CO2 incubator, the supernatant from the assay plate was transferred to a new 384-well plate containing the indicator cells with a fire fly luciferase gene under HIV-1 LTR control. The expression level of luciferase was related to HIV-1 infectivity and was measured by Bright-Glo kit (Promega).
(§4) Therapeutic index (TI) was determined by taking ratio of CC50/IC50

Another data set concerns HIV-1 strain IIIB. Description: Anti-HIV-1 luciferase indicator assay in MT2 cells, IIIB. It is filed as cell-based. The settings on record: viral strain II B; for IC50: Human immunodeficiency virus 1, IIIB, MT2, MT2 cells, read-out: IC50; for TI / Safety Index (CC50/IC50): MT2 cells. The method, then: as §1, §2, §3, §4
A further data set has as its system HIV-1 strain CNHN24. Briefly: Anti-HIV-1 luciferase indicator assay in MT2 cells, CNHN24. The settings on record: viral strain CNHN24; for IC50: Human immunodeficiency virus 1, MT2, MT2 cells, read-out: IC50; for TI / Safety Index (CC50/IC50): MT2 cells. It is filed as cell-based. The method, then:
as §1, §2, §3, §4

The nature of another data set: in vitro. It is filed as cell-based. The settings on record: human, CC50. The method, then:
as §1
For cytotoxicity assay the same amount of MT2 cells as in antivirus assay but without HIV-1 virus were added to the cytotoxicity plates. The cytotoxicity was measured by Cell Titer-Glo cell viability assay (Promega).

Another data set concerns HIV-1 strain 92-HT599. Briefly: Anti HIV-1 p24 assay, strain 92-HT599 in MT2 cells. It is filed as cell-based. To be noted: Human immunodeficiency virus 1, MT2 cells, read-out: Percent inhibition. The method, then: MT2 cells were infected with the HIV-1 strain 92-HT599 (10TCID50/30000 cells). The infected cells are plated at the concentration of 30000 cells per well in a 96 well assay micro plate. A test compound was added to the micro plate in a defined format with the final concentration of DMSO (vehicle) being not more than 1%. Incubation was carried out in a CO2 incubator for 96 hours for viral infection. At the end of incubation period an aliquot from each well was taken for p24 estimation. The quantitation of p24 is an index for antiviral activity of the compound. Percent inhibition was calculated with reference to control values (vehicle).
P24 estimation was carried out using an Advance Biosciences kit as per the procedure as detailed by supplier.
[…] was made by dissolving test compound in DMSO. Subsequent dilutions were made with DMSO to make necessary working stocks (100×).

In the case of `C=C(C)[C@@H]1CC[C@]2(C(=O)N[C@H]3C[C@@H](C(=O)N4CCCCC4)C3(C)C)CC[C@]3(C)[C@H](CC[C@@H]4[C@@]5(C)CC[C@H](OC(=O)[C@@H]6C[C@H](C(=O)O)C6(C)C)C(C)(C)[C@@H]5CC[C@]43C)[C@@H]12`, the melting point (usually the temperature, or range, at which the solid turns liquid) fell in the range of 257.7 to 269 °C.

Take `C=C(C)[C@@H]1CC[C@]2(C(=O)N[C@@H]3C[C@H](C(=O)OCc4ccccc4)C3(C)C)CC[C@]3(C)[C@H](CC[C@@H]4[C@@]5(C)CC[C@H](OC(=O)CC(C)(C)C(=O)O)C(C)(C)[C@@H]5CC[C@]43C)[C@@H]12`: the melting point lay in the range of 64.7 to 100.4 °C.

Take `C=C(C)[C@@H]1CC[C@]2(C(=O)O)CC[C@]3(C)[C@H](CC[C@@H]4[C@@]5(C)CC[C@H](OC(=O)[C@@H]6C[C@H](C(=O)O)C6(C)C)C(C)(C)[C@@H]5CC[C@]43C)[C@@H]12` [Example 4, (1R,3aS,5aR,5bR,7aR,9S,11aR,11bR,13aR,13bR)-9-((1R,3S)-3-carboxy-2,2-dimethylcyclobutanecarbonyloxy)-5a,5b,8,8,11a-pentamethyl-1-(prop-1-en-2-yl)icosahydro-1H-cyclopenta[a]chrysene-3a-carboxylic acid]: in data set [1], the viability (usually a read-out of living cells in per cent, often relative to untreated cells) at 0.001 µM turned out to be 85.8%; the viability at 0.1 µM is 86.8%; the viability at 1 µM amounted to 85.2%; the viability at 100 µM was determined as 39%. Besides, the viability at 1 mM in data set [1] was found to be 26.2%. In [2], the viability at 24 h, 0.1 µM was found to be 101%; the viability at 24 h, 1 µM is 98.7%; the viability at 24 h, 10 µM was 102%; the viability at 24 h, 100 µM is 7.03%. Further, in the data set on HIV-193IN 101, the inhibition (usually the change of the read-out against control, counted positive when it falls) at 0.0001 µM was 13%; the inhibition at 0.001 µM was determined as 17.7%; the inhibition at 0.1 µM worked out at 23.5%; the inhibition at 1 µM came to 42.4%. For the same compound, the inhibition at 100 µM in the data set with HIV-193IN 101 amounted to 87.5%. Further, in the data set with HIV-1 strain NL4-3, the IC50 – broadly, the concentration that inhibits the measured activity by half – turned out to be 201 nM and the “TI / Safety Index (CC50/IC50)” value worked out at 91. Besides, in the data set on HIV-1 strain IIIB, the IC50 was found to be 364 nM and the “TI / Safety Index (CC50/IC50)” value is 54. Besides, in the data set with HIV-1 strain CNHN24, the IC50 turned out to be 218 nM and the “TI / Safety Index (CC50/IC50)” value stood at 91. Besides, half-maximal cytotoxicity in “in vitro” (CC50) was put at 20000 nM.

Consider `C=C(C)[C@@H]1CC[C@]2(C(=O)O)CC[C@]3(C)C(CC[C@@H]4[C@@]5(C)[C@@H](C(=O)O)[C@H](OC(=O)CC(C)(C)C(=O)O)C(C)(C)[C@@H]5CC[C@]43C)C12` (stereo partly drawn) [Example 6, (1R,2S,3aR,5aR,5bR,7aS,10R,12aR,12bR)-2-(3-carboxy-3-methylbutanoyloxy)-3,3,5a,5b,12b-pentamethyl-10-(prop-1-en-2-yl)icosahydrodicyclopenta[a,i]phenanthrene-1,7a-dicarboxylic acid], for which, in [1], the viability at 0.001 µM was determined as 86.9%, the viability at 0.1 µM is 82.7%, the viability at 1 µM worked out at 88.6% and the viability at 100 µM was found to be 88.8%. In addition, in data set [1], the viability at 1 mM is 23.1%. In data set [2], the viability at 24 h, 0.1 µM was 103%; the viability at 24 h, 1 µM came out at 99%; the viability at 24 h, 10 µM worked out at 82.8%; the viability at 24 h, 100 µM came to 7.27%. Moreover, in the data set on HIV-193IN 101, the inhibition at 0.0001 µM came out at 17.5%, the inhibition at 0.001 µM was determined as 15.2%, the inhibition at 0.1 µM turned out to be 21.1% and the inhibition at 1 µM was 32.1%. Further, the inhibition at 100 µM in the data set on HIV-193IN 101 came to 34.9%.

Take `C=C(C)[C@@H]1CC[C@]2(C(=O)N[C@H]3C[C@@H](C(=O)N4CCCC4)C3(C)C)CC[C@]3(C)[C@H](CC[C@@H]4[C@@]5(C)CC[C@H](OC(=O)CC(C)(C)C(=O)O)C(C)(C)[C@@H]5CC[C@]43C)[C@@H]12` [Example 15, 4-((1R,3aS,5aR,5bR,7aR,9S,11aR,11bR,13aR,13bR)-3a-((1S,3R)-2,2-dimethyl-3-(pyrrolidine-1-carbonyl)cyclobutylcarbamoyl)-5a,5b,8,8,11a-pentamethyl-1-(prop-1-en-2-yl)icosahydro-1H-cyclopenta[a]chrysen-9-yloxy)-2,2-dimethyl-4-oxobutanoic acid]: the melting point lay within 110 to 114 °C. In addition, in the data set with HIV-1 strain 92-HT599 (HIV-1 92-HT599, p24, concentration 0.1 μM), the inhibition at 0.1 µM was 86%. Also, in the data set with HIV-1 strain 92-HT599 (HIV-1 92-HT599, p24, concentration 1 μM), the inhibition at 1 µM was 98%.

Consider `C=C(C)[C@@H]1CC[C@]2(C(=O)O)CC[C@]3(C)[C@H](CC[C@@H]4[C@@]5(C)CC[C@H](OC(=O)[C@H]6C[C@@H](C(=O)O)C6(C)C)C(C)(C)[C@@H]5CC[C@]43C)[C@@H]12` [Example 19, (1R,3aS,5aR,5bR,7aR,9S,11aR,11bR,13aR,13bR)-9-((1S,3R)-3-carboxy-2,2-dimethylcyclobutanecarbonyloxy)-5a,5b,8,8,11a-pentamethyl-1-(prop-1-en-2-yl)icosahydro-1H-cyclopenta[a]chrysene-3a-carboxylic acid], for which the melting point lay in the range of 308 to 310 °C. Further, in the data set with HIV-1 strain NL4-3, the half-maximal inhibitory concentration (IC50) was determined as 72 nM and the “TI / Safety Index (CC50/IC50)” value came to 277. In the data set on HIV-1 strain IIIB, the IC50 turned out to be 21 nM and the “TI / Safety Index (CC50/IC50)” value is given as 952. Besides, in the data set with HIV-1 strain CNHN24, the IC50 was 26 nM and the “TI / Safety Index (CC50/IC50)” value turned out to be 769. The CC50 (usually the concentration that lowers cell viability or growth by half) in the data set “in vitro” is 20000 nM.
